Broadly, the logP is the decadic logarithm of the partition coefficient of the neutral form, usually between octanol and water. A low value points to a more hydrophilic compound. A word on the chromatographic logP: it is lipophilicity estimated from chromatographic retention.

Series [1] is described as follows: log P determination by HPLC on reversed-phase column (C 18), EEC Directive 79/831 Annex V.A8. The format is physicochemical. The note with it: C 18 reversed phase, 40° C., 0.1% aqueous formic acid and acetonitrile, linear gradient 10% to 90% acetonitrile; for chromatographic logP: reversed-phase C18 HPLC column. How it is done:
In table 1, the log P values were determined in accordance with EEC Directive 79/831 Annex V.A8 by HPLC (High Performance Liquid Chromatography) on a reversed-phase column (C 18), using the method described below: Temperature: 40° C.; Mobile phases: 0.1% aqueous formic acid and acetonitrile; linear gradient from 10% acetonitrile to 90% acetonitrile. Calibration was carried out using unbranched alkan-2-ones (comprising 3 to 16 carbon atoms) with known log P values (determination of the log P values by the retention times using linear interpolation between two successive alkanones). lambda-max-values were determined using UV-spectra from 200 nm to 400 nm and the peak values of the chromatographic signals.

Series [2] concerns Uromyces appendiculatus. In words: In vivo preventive test on Uromyces appendiculatus (bean rust). The conditions noted are these: Table B2, dose 100 ppm, bean plants, comparison with isopropyl analogues of WO2012/059497. How it is done: EXAMPLE B: IN VIVO PREVENTIVE TEST ON UROMYCES APPENDICULATUS (BEAN RUST) Solvent: 5% by volume of Dimethyl sulfoxide • 10% by volume of Acetone Emulsifier: 1 μL of Tween® 80 per mg of active ingredient The active ingredients are made soluble and homogenized in a mixture of Dimethyl sulfoxide/Acetone//Tween® 80 and then diluted in water to the desired concentration. The young plants of bean are treated by spraying the active ingredient prepared as described above. Control plants are treated only with an aqueous solution of Acetone/Dimethyl sulfoxide/Tween® 80. After 24 hours, the plants are contaminated by spraying the leaves with an aqueous suspension of Uromyces appendiculatus spores. The contaminated bean plants are incubated for 24 hours at 20° C. and at 100% relative humidity and then for 10 days at 20° C. and at 70-80% relative humidity. The test is evaluated 11 days after the inoculation. 0% means an efficacy which corresponds to that of the control plants while an efficacy of 100% means that no disease is observed.

Where “and” joins values, the source holds several entries; their conditions need not be identical. Equal entries are not always repeated.

Consider `Cn1nc(C(F)F)c(C(=O)N(Cc2cc(Br)cnc2C2(C)CC2)C2CC2)c1Cl` [I.07], for which, in series [1], the logP turned out to be 3.12. For `Cn1nc(C(F)F)c(C(=O)N(Cc2cc(Br)cnc2C2(C)CC2)C2CC2)c1F` [I.08], the logP in series [1] is on record as 2.91. On the same count and under the same terms, under `Cn1nc(C(F)F)c(C(=O)N(Cc2sc(Br)cc2C2(Cl)CC2)C2CC2)c1F` [I.18] stands 4.15.

In series [1], `C=Cc1cnc(C2(C)CC2)c(CN(C(=O)c2c(C(F)F)nn(C)c2Cl)C2CC2)c1` [I.32] showed a logP of 1.91. The molecule `Cn1nc(C(F)F)c(C(=O)N(Cc2sccc2C2(Cl)CC2)C2CC2)c1F` [I.13] came in with a logP in series [1] of 3.37.

Molecule `Cn1nc(C(F)F)c(C(=S)N(Cc2cc(Cl)cnc2C2(C)CC2)C2CC2)c1Cl` [I.24] came in with a logP in series [1] of 3.71.

For the molecule `Cc1cnc(C2(C)CC2)c(CN(C(=O)c2c(C(F)F)nn(C)c2F)C2CC2)c1` [I.05], in series [1], the log partition coefficient (logP) turned out to be 1.42. Turning to `Cn1nc(C(F)F)c(C(=O)N(Cc2cccnc2C2(C)CC2)C2CC2)c1F` [I.01], in series [1], the logP was determined as 1.28. For the molecule `ClC1(c2ccsc2CNC2CC2)CC1` [IIa.02, N-{[3-(1-chlorocyclopropyl)-2-thienyl]methyl}cyclopropanamine], the chromatographic logP in series [1] worked out at 0.87.

In series [1], `Cn1nc(C(F)F)c(C(=S)N(Cc2cc(Cl)cnc2C2(C)CC2)C2CC2)c1F` [I.23] gave a logP of 3.52. As to `Cc1cc(C2(Cl)CC2)c(CN(C(=S)c2c(C(F)F)nn(C)c2Cl)C2CC2)s1` [I.26], in series [1], the log partition coefficient (logP) amounted to 4.56. The molecule `Cc1cnc(C2(C)CC2)c(CN(C(=S)c2c(C(F)F)nn(C)c2Cl)C2CC2)c1` [I.21] returned a logP in series [1] of 1.69. Regarding `Cn1nc(C(F)F)c(C(=S)N(Cc2cccnc2C2(C)CC2)C2CC2)c1F` [I.20], in series [1], the logP is listed as 1.53. With `CC1(c2ccsc2CO)CC1` [Vc.01, [3-(1-methylcyclopropyl)-2-thienyl]methanol], the chromatographic logP in series [1] is 2.09. In series [1], `Cn1nc(C(F)F)c(C(=S)N(Cc2sccc2C2(C)CC2)C2CC2)c1Cl` [I.27] registered a logP of 4.44. Take `Cn1nc(C(F)F)c(C(=O)N(Cc2cc(-c3ccccc3)cnc2C2(C)CC2)C2CC2)c1Cl` [I.31]: the logP in series [1] worked out at 2.33.

Molecule `COC1(c2cc(C)sc2CN(C(=O)c2c(C(F)F)nn(C)c2F)C2CC2)CC1` [I.17] gave a logP in series [1] of 3.37. `CC1(c2ccsc2CNC2CC2)CC1` [IIa.01, N-{[3-(1-methylcyclopropyl)-2-thienyl]methyl}cyclopropanamine] came in with a chromatographic logP in series [1] of 0.7. `Cc1cc(C2(Cl)CC2)c(CN(C(=O)c2c(C(F)F)nn(C)c2Cl)C2CC2)s1` [I.16] had a logP in series [1] of 3.92. In series [1], `Cn1nc(C(F)F)c(C(=O)N(Cc2sccc2C2(Cl)CC2)C2CC2)c1Cl` [I.14] gave a logP of 3.55.

In the case of `Cn1nc(C(F)F)c(C(=O)N(Cc2cc(Cl)cnc2C2(C)CC2)C2CC2)c1F` [I.03], the lipophilicity (logP) in series [1] came to 2.88. On to `N#CC1(c2ccsc2CO)CC1` [Vc.03, 1-[2-(hydroxymethyl)-3-thienyl]cyclopropanecarbonitrile], for which, in series [1], the chromatographic logP worked out at 0.63. In series [1], `Cc1cc(C2(Cl)CC2)c(CN(C(=O)c2c(C(F)F)nn(C)c2F)C2CC2)s1` [I.15, N-{[3-(1-chlorocyclopropyl)-5-methyl-2-thienyl]methyl}-N-cyclopropyl-3-(difluoromethyl)-5-fluoro-1-methyl-1H-pyrazole-4-carboxamide] gave a chromatographic logP of 3.76. Turning to `Cn1nc(C(F)F)c(C(=O)N(Cc2cc(C3=CCCC3)cnc2C2(C)CC2)C2CC2)c1F` [I.29], the logP in series [1] amounted to 2.05. With `Cc1cc(C2(C)CC2)c(CN(C(=O)c2c(C(F)F)nn(C)c2Cl)C2CC2)s1` [I.12], the logP in series [1] was 4.27. In addition, the Efficacy in series [2] is 100% and 92%. `CC1(c2ccsc2CBr)CC1` [Va1.01, 2-(bromomethyl)-3-(1-methylcyclopropyl)thiophene] came in with a chromatographic logP in series [1] of 2.14. Molecule `Cc1cnc(C2(C)CC2)c(CN(C(=O)c2c(C(F)F)nn(C)c2Cl)C2CC2)c1` [I.06] came in with a logP in series [1] of 1.54. On the same count and under the same terms, to `Cn1nc(C(F)F)c(C(=O)N(Cc2sccc2C2(C)CC2)C2CC2)c1F` [I.09] belongs 3.70. In the case of `O=Cc1sccc1C1(Cl)CC1` [IV.01, 3-(1-chlorocyclopropyl)thiophene-2-carbaldehyde], in series [1], the chromatographic logP is 2.41. The molecule `Cc1cc(C2(C)CC2)c(CO)s1` [Vc.02, [5-methyl-3-(1-methylcyclopropyl)-2-thienyl]methanol] showed a chromatographic logP in series [1] of 2.52.

In series [1], `Cn1nc(C(F)F)c(C(=O)N(Cc2cc(Cl)cnc2C2(C)CC2)C2CC2)c1Cl` [I.04] yielded a logP of 3.09.

For the molecule `Cc1cc(C2(Cl)CC2)c(CNC2CC2)s1` [IIa.03, N-{[3-(1-chlorocyclopropyl)-5-methyl-2-thienyl]methyl}cyclopropanamine], the chromatographic logP in series [1] was 1.2. As for `Cn1nc(C(F)F)c(C(=S)N(Cc2cccnc2C2(C)CC2)C2CC2)c1Cl` [I.19], in series [1], the logP worked out at 1.63. Regarding `Cn1nc(C(F)F)c(C(=S)N(Cc2sccc2C2(Cl)CC2)C2CC2)c1Cl` [I.25], in series [1], the logP is 4.19.

Take `Cc1cc(C(C)C)c(CN(C(=O)c2c(C(F)F)nn(C)c2F)C2CC2)s1` [CMP1, N-cyclopropyl-3-(difluoromethyl)-5-fluoro-N-[(3-isopropyl-5-methyl-2-thienyl)methyl]-1-methyl-1H-pyrazole-4-carboxamide, reference compound]: the Efficacy in series [2] worked out at 65%. `Cc1cnc(C2(C)CC2)c(CN(C(=S)c2c(C(F)F)nn(C)c2F)C2CC2)c1` [I.22]: the logP in series [1] was found to be 1.59. In turn, `Cn1nc(C(F)F)c(C(=O)N(Cc2sccc2C2(C)CC2)C2CC2)c1Cl` [I.10] returned a logP in series [1] of 3.85. On to `Cn1nc(C(F)F)c(C(=O)N(Cc2cc(-c3ccsc3)cnc2C2(C)CC2)C2CC2)c1F` [I.30], for which the logP in series [1] is 2.12. `Cc1cc(C2(Cl)CC2)c(C=O)s1` [IV.02, 3-(1-chlorocyclopropyl)-5-methylthiophene-2-carbaldehyde] came in with a chromatographic logP in series [1] of 2.75.

Take `Cc1cc(C2(C)CC2)c(CBr)s1` [Va1.02, 2-(bromomethyl)-5-methyl-3-(1-methylcyclopropyl)thiophene]: the chromatographic logP in series [1] was determined as 2.54. Consider `Cc1cc(C(C)C)c(CN(C(=O)c2c(C(F)F)nn(C)c2Cl)C2CC2)s1` [CMP2, 5-chloro-N-cyclopropyl-3-(difluoromethyl)-N-[(3-isopropyl-5-methyl-2-thienyl)methyl]-1-methyl-1H-pyrazole-4-carboxamide, reference compound], for which, in series [2], the Efficacy is given as 0%. For `Cc1cc(C2(C)CC2)c(CN(C(=O)c2c(C(F)F)nn(C)c2F)C2CC2)s1` [I.11], the logP in series [1] was 4.13. This molecule also came in with an Efficacy in series [2] of 100%. `Cn1nc(C(F)F)c(C(=S)N(Cc2sccc2C2(C)CC2)C2CC2)c1F` [I.28] gave a logP in series [1] of 4.28. In turn, `Cn1nc(C(F)F)c(C(=O)N(Cc2cccnc2C2(C)CC2)C2CC2)c1Cl` [I.02] showed a logP in series [1] of 1.41. Consider `COC1(c2cc(C)sc2CNC2CC2)CC1` [IIa.04, N-{[3-(1-methoxycyclopropyl)-5-methyl-2-thienyl]methyl}cyclopropanamine], for which, in series [1], the chromatographic logP was 1.07.

The values above are taken from patent US20180139962A1, “FUNGICIDAL N-CYCLOALKYL-N-{[ORTHO-(1-SUBSTITUTED-CYCLOALKYL)HETEROARYL]METHYL}PYRAZOLE(THIO)CARBOXAMIDS” (Bayer CropScience Aktiengesellschaft, priority 2015, published 2018).
